Source: US11524938B2, “Aromatic sulfonamide derivatives” (Bayer Pharma Aktiengesellschaft, priority 2016, dated 2022)

Key:
Assay type in all cases: cell-based
human P2X4 [1] = biological target: T1, human P2X4 (Homo sapiens, UniProt Q99571); test: FLIPR assay, human P2X4 1321N1 Astrocytoma cells; settings: agonist Mg-ATP 0.5 μM (EC80)
T1 sequence (Q99571 1-388): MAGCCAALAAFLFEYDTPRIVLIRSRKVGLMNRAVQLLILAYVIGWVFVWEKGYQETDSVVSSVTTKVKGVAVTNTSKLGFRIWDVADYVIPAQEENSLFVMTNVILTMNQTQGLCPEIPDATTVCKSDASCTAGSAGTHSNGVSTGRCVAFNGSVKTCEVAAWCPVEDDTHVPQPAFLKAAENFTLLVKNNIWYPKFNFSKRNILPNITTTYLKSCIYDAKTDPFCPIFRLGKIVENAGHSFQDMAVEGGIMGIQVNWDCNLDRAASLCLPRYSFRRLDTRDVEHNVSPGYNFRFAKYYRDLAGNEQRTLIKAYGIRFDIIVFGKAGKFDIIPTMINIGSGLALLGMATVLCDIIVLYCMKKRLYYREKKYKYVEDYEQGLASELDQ
Description: (§1) 1321N1 Astrocytoma cells stably expressing human P2X4 or rat P2X4 or mouse P2X4 were plated in Collagen I TC-treated microplate at a seeding density of 10000 cells/well and incubated overnight. P2X4 function was assessed by measuring intracellular calcium changes using the calcium-chelating dye Fluo8-AM (Molecular Devices) on a fluorescent imaging plate reader (FLEX/FLIPR station; Molecular Devices). On the day of the assay, the medium was removed and the cells were incubated for 30 min at 37 °C and 5% CO2 in 30 μL of dye buffer (Hank's balanced salt solution, 10 mM HEPES, 1.8 mM CaCl2, 1 mM MgCl2, 2 mM probenecid, 5 mM D-glucose monohydrate, 5 μM Fluo8-AM, pH=7.4). Compounds diluted in probenecid buffer (Hank's balanced salt solution, 10 mM HEPES, 1.8 mM CaCl2, 1 mM MgCl2, 2 mM probenecid, 5 mM D-glucose monohydrate, pH=7.4) were added in a volume of 10 μL and allowed to incubate for 30 min at room temperature. The final assay DMSO concentration was 0.25%. The agonist, Mg-ATP (Sigma), was added in a volume of 10 μL at a concentration representing the EC80 value. EC80 was determined to be 0.5 μM for human and mouse P2X4 and 5 μM for rat P2X4. The fluorescence was measured for an interval of 120 sec at 2 sec intervals. The excitation and emission wavelengths used to monitor fluorescence were 470-495 nm and 515-575 nm, respectively. The data was analyzed based on the increase in peak relative fluorescence units (RFU) compared to the basal fluorescence and the data was normalized to the agonist control. The compounds were tested in triplicates per plate and mean values were plotted in Excel XLFit to determine IC50 values, percentage of maximal inhibition and the Hill coefficients.

human P2X4 [2] = biological target: T1, human P2X4; test: Human P2X4 HEK Cell FLIPR Assay; settings: HEK293, HEK293 cells, agonist Bz-ATP at EC80; percentage of maximal inhibition; read-out: Human P2X4 HEK Cells (FLIPR Assay) avg Efficacy [%]
How it was run: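 Calcium flux read by FLIPR for 120 sec after Bz-ATP challenge at EC80 (established each assay day), following 30 min room-temperature compound preincubation in dye-loaded stable human P2X4 HEK293 cells. Peak RFU over basal normalized to agonist control; IC50, maximal inhibition and Hill coefficient from triplicate means.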

rat P2X4 = biological target: T2, rat P2X4 (Rattus norvegicus, UniProt P51577); test: FLIPR assay, rat P2X4 1321N1 Astrocytoma cells; settings: agonist Mg-ATP 5 μM (EC80)
T2 sequence (P51577 1-388): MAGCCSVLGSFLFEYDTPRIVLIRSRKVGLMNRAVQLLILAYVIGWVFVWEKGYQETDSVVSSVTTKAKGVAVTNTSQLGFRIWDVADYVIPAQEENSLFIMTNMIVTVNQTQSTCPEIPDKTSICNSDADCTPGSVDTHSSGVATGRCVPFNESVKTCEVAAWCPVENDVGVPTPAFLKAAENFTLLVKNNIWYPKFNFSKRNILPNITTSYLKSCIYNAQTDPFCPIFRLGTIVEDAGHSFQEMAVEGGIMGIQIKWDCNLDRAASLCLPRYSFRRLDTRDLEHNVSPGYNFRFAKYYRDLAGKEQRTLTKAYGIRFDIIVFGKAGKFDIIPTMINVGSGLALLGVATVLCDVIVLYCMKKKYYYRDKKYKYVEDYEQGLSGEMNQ
Description: as §1

mouse P2X4 = biological target: T3, mouse P2X4 (Mus musculus, UniProt Q9JJX6); test: FLIPR assay, mouse P2X4 1321N1 Astrocytoma cells; settings: agonist Mg-ATP 0.5 μM (EC80)
T3 sequence (Q9JJX6 1-388): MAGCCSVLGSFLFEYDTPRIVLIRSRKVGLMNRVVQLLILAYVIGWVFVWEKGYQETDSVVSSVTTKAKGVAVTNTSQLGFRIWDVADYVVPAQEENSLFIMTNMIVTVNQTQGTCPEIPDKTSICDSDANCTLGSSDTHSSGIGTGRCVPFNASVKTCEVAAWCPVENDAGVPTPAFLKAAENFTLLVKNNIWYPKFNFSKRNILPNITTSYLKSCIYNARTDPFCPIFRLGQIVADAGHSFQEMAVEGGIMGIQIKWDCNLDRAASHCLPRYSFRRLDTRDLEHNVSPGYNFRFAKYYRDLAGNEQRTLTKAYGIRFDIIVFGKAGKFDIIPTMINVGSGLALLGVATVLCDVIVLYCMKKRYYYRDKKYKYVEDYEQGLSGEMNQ
Description: as §1

SMILES | Human P2X4 1321N1 Astrocytoma Cells (FLIPR Assay) avg Efficacy [%] (human P2X4 [1]) | Emax (human P2X4 [2]) | Rat P2X4 1321N1 Astrocytoma Cells (FLIPR Assay) avg Efficacy [%] (rat P2X4) | Mouse P2X4 1321N1 Astrocytoma Cells (FLIPR Assay) avg Efficacy [%] (mouse P2X4)
NS(=O)(=O)c1cc(NC(=O)Cc2ccccc2Cl)ccc1-c1cnn(C(F)F)c1 [Example 326, 2-(2-Chlorophenyl)-N-{4-[1-(difluoromethyl)-1H-pyrazol-4-yl]-3-sulfamoylphenyl}acetamide] | 80% | 95% | 99% | 87%
N#Cc1cnn(-c2ccc(NC(=O)Cc3ccccc3Cl)cc2S(N)(=O)=O)c1 [Example 39, 2-(2-Chlorophenyl)-N-[4-(4-cyano-1H-pyrazol-1-yl)-3-sulfamoylphenyl]acetamide] | 83% | 96% | 87% | 87%
